From US20130197032A1, “[…] COMPOUNDS FOR THE TREATMENT OF NEUROLOGICAL AND […] DISORDERS” (A. CARLSSON RESEARCH AB, priority 2010, published 2013)

Experiments:
human 5-HT1D receptor = biological target: T1, human 5-HT1D receptor (Homo sapiens, UniProt P28221); experiment: R-SAT assay 5-HT1D; type: cell-based; details: Table 3, 5-HT1D; for Eff (%): percent response of reference 5-CT
T1 construct: expressed in transfected cells; host or cells: NIH/3T3

[1] = biological target: T2, human 5-HT2C(vgv) receptor (Homo sapiens, UniProt P28335, I156V/I160V/N158G); experiment: R-SAT assay 5-HT2C; type: cell-based; details: Table 3, 5-HT2C; for EC50: negative logarithm of EC50 in molar; for Eff (%): percent response of reference 5-CT
T2 construct: expressed in transfected cells; host or cells: NIH/3T3
T2 sequence (P28335 33-458 I156V/N158G/I160V): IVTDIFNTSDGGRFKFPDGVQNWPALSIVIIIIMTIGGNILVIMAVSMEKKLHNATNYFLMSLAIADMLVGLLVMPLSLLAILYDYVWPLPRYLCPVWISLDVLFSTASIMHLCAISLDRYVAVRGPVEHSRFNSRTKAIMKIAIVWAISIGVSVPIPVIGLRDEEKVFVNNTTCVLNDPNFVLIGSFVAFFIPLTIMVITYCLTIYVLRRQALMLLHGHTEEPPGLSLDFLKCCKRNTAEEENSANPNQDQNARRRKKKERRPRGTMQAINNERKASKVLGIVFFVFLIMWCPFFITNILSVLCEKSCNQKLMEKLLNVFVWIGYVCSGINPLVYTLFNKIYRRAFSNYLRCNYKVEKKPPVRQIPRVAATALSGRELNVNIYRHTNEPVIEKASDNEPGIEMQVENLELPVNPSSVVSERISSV

human H1 receptor = biological target: T3, human H1 receptor (Homo sapiens, UniProt P35367); experiment: R-SAT assay H1; type: cell-based; details: Table 3, H1; percent response of reference Histamine
T3 construct: expressed in transfected cells; host or cells: NIH/3T3

human M1 receptor = biological target: T4, human M1 receptor (Homo sapiens, UniProt P11229); experiment: R-SAT assay M1; type: cell-based; details: Table 3, M1; percent response of reference Carbachol
T4 construct: expressed in transfected cells; host or cells: NIH/3T3

human M3 receptor = biological target: T5, human M3 receptor (Homo sapiens, UniProt P20309); experiment: R-SAT assay M3; type: cell-based; details: Table 3, M3; percent response of reference Carbachol
T5 construct: expressed in transfected cells; host or cells: NIH/3T3

human M4 receptor = biological target: T6, human M4 receptor (Homo sapiens, UniProt P08173); experiment: R-SAT assay M4; type: cell-based; details: Table 3, M4; percent response of reference Carbachol
T6 construct: expressed in transfected cells; host or cells: NIH/3T3
T6 sequence (P08173 1-479): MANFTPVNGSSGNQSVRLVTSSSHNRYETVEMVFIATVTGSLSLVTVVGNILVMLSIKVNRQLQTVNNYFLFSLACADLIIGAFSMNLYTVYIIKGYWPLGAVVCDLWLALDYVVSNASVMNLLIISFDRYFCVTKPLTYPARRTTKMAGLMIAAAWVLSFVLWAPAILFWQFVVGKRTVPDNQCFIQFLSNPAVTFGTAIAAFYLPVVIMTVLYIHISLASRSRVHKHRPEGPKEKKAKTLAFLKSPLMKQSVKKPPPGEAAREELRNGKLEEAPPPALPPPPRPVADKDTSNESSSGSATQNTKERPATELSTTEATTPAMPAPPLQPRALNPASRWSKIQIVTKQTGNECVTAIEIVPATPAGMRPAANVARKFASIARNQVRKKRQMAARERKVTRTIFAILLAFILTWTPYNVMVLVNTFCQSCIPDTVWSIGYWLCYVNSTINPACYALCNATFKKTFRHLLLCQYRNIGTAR

human alpha2B receptor = biological target: T7, human alpha2B receptor (Homo sapiens, UniProt P18089); experiment: R-SAT assay α2B; type: cell-based; details: Table 3, α2B; percent response of reference UK 14,306
T7 construct: expressed in transfected cells; host or cells: NIH/3T3 cells, transient transfection, pSI vector

[2] = system: DOI-induced head twitches in mice; experiment: Antagonism of DOI-induced head twitch response in mice; type: in vivo; details: DOI 1 mg/kg ip, 75 or 150 μmol/kg ip
Procedure: The animals used in the head twitch experiments were individually placed in Macrolon type II cages and allowed to habituate to these test cages during 30 minutes before the video registration of behavior began. […] The animals were videotaped for 10 minutes; the behavior was scored during the first 5 minutes. The number of head twitches was counted from the videotapes by a person blind to the treatment.
The purpose of the second experiment was to investigate whether the OSU6162 enantiomers would be able to counteract DOI-induced head twitches. […] The mice were habituated to the test cages during 30 minutes before the video registration of behavior began. All compounds were administered 10 min before the registration of behavior started. DOI was given in dose of 1 mg/kg (ip) throughout. […] In b) the interaction between (+)-OSU6162 (75 or 150 μmol/kg ip) and DOI is shown. In c) the interaction between (−)- or (+)-OSU6162 (75 μmol/kg ip) and DOI is shown.

[3] = biological target: human dopamine transporter (DAT) (Homo sapiens, UniProt Q01959); experiment: Equilibrium radioligand binding to DAT; details: displacement of 125I-RTI-55
Procedure: (§1) Cells were not centrifuged following cell scraping, but were collected directly into the ice-cold nitrogen cavitation chamber.
(§2) Membranes were prepared as described above. […] Binding reactions were terminated by filtration through UniFilter-96GF/B filters (from Perkin-Elmer, presoaked with 0.1% polyethylenimine for 1 h) with a Brandel 96-well harvester. Filters were washed with ice-cold wash buffer (50 mM Tris, 120 mM NaCl, pH7.4; 500 ml/plate) and then allowed to air-dry for 30 min. 50 μl MacrosScint-20 scintillation cocktail was added to each well, the plates were sealed, and then counted on a Top-Count (Packard).

[4] = biological target: human norepinephrine transporter (NET) (Homo sapiens, UniProt P23975); experiment: Equilibrium radioligand binding to NET; details: displacement of 3H-Imipramine
Procedure: as §1, §2

human 5-HT2A receptors [5] = biological target: T8, human 5-HT2A receptors (Homo sapiens, UniProt P28223); experiment: R-SAT functional assay at 5-HT2A; type: cell-based; design: expressed in transfected cells; host or cells: NIH-3T3; details: for R-SAT Eff(%): percent response of reference ligand 5-CT; for Eff (%): percent response of reference 5-CT; for potency at 5-HT2A receptors compared with D2 receptors: comparison of Table 1 and Table 2
5-HT2B receptors = 5-HT2B receptors (Homo sapiens, UniProt P41595); experiment: R-SAT assay 5-HT2B; type: cell-based; design: expressed in transfected cells; host or cells: NIH/3T3; details: Table 3, 5-HT2B; for EC50: negative logarithm of EC50 in molar, read-out: pEC50 (converted); for Eff (%): percent response of reference 5-CT
human 5-HT2A receptors [6] = biological target: T8, human 5-HT2A receptors; experiment: BRET2 beta-arrestin-2 recruitment assay at 5-HT2A; type: cell-based; design: expressed in transfected cells; host or cells: HEK-293T; details: mean ± SEM; for EC50: negative logarithm of EC50 in molar (M), HEK 293T cells, read-out: BRET2 pEC50 (converted); for BRET2 Eff %: percent response of reference ligand 5-HT
Procedure: BRET-2 signals were measured using the multiplate reader Mithras 940LB (Berthold Technologies, Bad Wildbad, Germany) and were calculated as the ratio between the Renilla luciferase emission and the GFP2 emission corrected by the background emissions of non-transfected cells.

[7] = Table 1, negative logarithm of EC50 in molar (M), NIH3T3 cells, mean ± SEM, read-out: R-SAT pEC50 (converted)
[8] = Table 3, 5-HT2A, negative logarithm of EC50 in molar, read-out: pEC50 (converted)

T1 sequence (P28221 whole entry): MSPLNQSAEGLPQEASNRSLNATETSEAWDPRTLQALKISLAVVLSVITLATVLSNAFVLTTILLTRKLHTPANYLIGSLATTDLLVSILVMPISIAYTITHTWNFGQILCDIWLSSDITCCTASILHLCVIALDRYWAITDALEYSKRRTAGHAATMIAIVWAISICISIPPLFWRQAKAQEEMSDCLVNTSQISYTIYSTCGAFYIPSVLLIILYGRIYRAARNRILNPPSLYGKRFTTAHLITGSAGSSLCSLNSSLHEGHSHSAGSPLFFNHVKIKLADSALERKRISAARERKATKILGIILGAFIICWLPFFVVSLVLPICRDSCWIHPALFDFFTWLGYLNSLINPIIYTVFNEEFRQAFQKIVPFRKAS
T8 sequence (P28223 whole entry): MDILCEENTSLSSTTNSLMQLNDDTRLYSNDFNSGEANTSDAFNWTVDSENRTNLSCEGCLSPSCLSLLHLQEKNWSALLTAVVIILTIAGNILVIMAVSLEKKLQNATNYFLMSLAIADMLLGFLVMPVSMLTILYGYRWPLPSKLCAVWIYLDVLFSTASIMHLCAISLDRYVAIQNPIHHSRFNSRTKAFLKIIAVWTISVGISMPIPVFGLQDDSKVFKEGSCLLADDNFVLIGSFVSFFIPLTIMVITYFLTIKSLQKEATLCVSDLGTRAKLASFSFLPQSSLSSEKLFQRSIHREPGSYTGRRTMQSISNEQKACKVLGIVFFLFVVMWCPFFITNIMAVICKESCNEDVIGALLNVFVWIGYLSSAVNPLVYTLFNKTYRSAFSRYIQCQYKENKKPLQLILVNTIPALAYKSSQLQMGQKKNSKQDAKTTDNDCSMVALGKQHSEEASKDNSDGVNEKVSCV
5-HT2B receptors, sequence (P41595 whole entry): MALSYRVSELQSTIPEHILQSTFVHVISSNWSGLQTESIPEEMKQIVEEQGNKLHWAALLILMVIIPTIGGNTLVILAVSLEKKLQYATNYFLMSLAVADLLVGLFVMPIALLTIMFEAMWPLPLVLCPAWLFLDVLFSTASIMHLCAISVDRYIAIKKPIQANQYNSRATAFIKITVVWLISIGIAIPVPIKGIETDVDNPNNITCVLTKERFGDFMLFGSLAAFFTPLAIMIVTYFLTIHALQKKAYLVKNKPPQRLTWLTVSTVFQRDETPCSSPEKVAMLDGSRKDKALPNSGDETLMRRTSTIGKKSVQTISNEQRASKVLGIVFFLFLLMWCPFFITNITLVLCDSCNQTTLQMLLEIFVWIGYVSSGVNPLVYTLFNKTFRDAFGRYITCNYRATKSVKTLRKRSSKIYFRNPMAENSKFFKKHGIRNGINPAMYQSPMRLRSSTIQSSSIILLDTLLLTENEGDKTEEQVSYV
T4 sequence (P11229 whole entry): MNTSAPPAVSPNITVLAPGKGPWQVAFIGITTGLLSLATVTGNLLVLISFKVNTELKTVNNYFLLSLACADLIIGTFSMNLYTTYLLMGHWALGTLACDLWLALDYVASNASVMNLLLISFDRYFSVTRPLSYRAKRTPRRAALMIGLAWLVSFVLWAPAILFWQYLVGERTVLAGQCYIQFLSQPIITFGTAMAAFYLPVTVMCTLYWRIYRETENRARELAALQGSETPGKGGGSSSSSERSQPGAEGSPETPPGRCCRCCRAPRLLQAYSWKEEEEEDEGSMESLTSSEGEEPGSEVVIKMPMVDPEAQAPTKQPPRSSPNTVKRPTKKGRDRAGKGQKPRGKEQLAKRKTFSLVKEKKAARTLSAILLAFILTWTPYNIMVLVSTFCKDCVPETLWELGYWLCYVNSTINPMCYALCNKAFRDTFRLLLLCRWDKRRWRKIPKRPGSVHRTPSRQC
T5 sequence (P20309 whole entry): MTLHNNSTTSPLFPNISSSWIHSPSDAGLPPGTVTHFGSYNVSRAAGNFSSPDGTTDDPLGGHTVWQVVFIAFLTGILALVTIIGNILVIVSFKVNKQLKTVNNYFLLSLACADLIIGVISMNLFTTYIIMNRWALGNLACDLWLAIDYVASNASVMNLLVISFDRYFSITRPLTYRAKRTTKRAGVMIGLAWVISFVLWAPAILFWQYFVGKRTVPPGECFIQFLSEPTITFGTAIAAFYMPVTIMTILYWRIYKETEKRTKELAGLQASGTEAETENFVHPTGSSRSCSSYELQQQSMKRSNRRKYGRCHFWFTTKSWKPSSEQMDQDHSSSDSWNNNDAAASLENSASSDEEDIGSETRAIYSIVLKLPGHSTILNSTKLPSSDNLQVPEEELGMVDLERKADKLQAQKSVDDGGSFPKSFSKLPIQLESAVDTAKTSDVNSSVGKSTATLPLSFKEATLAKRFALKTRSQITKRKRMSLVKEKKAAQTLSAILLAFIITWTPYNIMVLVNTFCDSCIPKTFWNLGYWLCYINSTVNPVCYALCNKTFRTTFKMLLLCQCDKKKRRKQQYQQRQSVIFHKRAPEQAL
T3 sequence (P35367 whole entry): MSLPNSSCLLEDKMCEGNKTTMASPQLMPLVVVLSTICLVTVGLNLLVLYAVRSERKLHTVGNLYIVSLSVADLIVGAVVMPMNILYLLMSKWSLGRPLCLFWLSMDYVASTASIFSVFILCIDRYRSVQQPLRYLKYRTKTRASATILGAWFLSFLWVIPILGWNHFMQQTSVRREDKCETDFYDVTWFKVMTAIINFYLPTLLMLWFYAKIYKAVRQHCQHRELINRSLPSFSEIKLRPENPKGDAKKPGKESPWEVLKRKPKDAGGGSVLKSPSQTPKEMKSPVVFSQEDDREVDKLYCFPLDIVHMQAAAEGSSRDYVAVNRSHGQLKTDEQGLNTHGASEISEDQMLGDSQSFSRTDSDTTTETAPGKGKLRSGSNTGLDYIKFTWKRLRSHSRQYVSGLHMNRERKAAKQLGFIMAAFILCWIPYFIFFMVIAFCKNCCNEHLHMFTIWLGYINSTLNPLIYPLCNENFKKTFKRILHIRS
human dopamine transporter (DAT), sequence (Q01959 whole entry): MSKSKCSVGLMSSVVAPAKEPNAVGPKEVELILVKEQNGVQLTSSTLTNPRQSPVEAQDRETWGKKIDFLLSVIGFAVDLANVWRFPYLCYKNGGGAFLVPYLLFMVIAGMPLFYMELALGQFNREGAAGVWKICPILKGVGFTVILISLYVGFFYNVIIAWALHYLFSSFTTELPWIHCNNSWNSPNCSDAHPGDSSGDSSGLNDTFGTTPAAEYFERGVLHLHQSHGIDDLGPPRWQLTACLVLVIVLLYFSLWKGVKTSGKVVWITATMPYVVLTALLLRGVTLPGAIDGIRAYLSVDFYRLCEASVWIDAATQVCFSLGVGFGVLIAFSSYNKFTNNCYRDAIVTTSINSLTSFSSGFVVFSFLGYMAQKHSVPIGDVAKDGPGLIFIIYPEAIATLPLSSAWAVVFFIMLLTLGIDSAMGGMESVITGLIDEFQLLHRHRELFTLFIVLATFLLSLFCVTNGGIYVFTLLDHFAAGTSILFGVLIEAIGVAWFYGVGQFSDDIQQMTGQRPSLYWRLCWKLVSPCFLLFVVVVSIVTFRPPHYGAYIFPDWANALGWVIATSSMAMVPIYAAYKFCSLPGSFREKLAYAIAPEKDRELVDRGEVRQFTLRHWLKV
human norepinephrine transporter (NET), sequence (P23975 whole entry): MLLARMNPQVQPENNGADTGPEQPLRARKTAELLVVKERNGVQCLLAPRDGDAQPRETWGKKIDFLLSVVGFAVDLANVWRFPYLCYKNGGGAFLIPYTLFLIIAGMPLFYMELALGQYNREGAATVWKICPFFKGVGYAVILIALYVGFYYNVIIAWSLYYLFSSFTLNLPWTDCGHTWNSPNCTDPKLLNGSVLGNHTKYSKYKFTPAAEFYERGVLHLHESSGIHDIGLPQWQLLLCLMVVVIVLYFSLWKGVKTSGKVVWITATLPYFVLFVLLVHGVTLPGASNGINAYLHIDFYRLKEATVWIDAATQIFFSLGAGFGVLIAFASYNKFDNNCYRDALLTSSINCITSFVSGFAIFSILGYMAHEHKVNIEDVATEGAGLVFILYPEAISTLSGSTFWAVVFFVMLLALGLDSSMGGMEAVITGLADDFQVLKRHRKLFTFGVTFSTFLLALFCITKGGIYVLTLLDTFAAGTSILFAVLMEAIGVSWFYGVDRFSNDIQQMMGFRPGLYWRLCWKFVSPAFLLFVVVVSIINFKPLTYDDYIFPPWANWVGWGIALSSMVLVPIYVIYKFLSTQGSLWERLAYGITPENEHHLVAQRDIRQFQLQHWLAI
T7 sequence (P18089 whole entry): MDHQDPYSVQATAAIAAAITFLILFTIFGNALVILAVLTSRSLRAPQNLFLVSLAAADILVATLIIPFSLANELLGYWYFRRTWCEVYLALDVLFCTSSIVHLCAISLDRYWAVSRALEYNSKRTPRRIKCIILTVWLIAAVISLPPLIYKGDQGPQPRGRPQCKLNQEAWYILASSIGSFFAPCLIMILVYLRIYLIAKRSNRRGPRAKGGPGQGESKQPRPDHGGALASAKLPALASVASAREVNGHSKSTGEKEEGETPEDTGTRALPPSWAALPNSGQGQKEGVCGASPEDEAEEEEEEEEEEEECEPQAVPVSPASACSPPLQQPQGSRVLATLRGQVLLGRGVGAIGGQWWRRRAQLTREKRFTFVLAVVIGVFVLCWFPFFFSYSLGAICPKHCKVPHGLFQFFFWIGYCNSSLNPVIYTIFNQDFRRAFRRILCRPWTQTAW

Row | SMILES | Eff (%) (human 5-HT1D receptor) | EC50 [1] | Eff (%) [1] | Eff (%) (human H1 receptor) | Eff (%) (human M1 receptor) | Eff (%) (human M3 receptor) | Eff (%) (human M4 receptor) | Eff (%) (human alpha2B receptor) | antagonism of DOI-induced head twitches [2] | Inh % [3] | Inh % [4] | EC50 (human 5-HT2A receptors [5]; [7]) | R-SAT Eff(%) (human 5-HT2A receptors [5]; Table 1, mean ± SEM) | EC50 (human 5-HT2A receptors [5]; [8]) | Eff (%) (human 5-HT2A receptors [5]; Table 3, 5-HT2A) | potency at 5-HT2A receptors compared with D2 receptors (human 5-HT2A receptors [5]) | EC50 (5-HT2B receptors) | Eff (%) (5-HT2B receptors) | EC50 (human 5-HT2A receptors [6]) | further results
1 | CCCN1CCC[C@H](c2cccc(S(C)(=O)=O)c2)C1 [(+)-OSU6162, (3R)-3-[3-(methylsulfonyl)phenyl]-1-propylpiperidine] | 28% | 31.6 µM | 84% | 3% | 11% | 6% | 4% | 8% | neither 75 nor 150 μmol/kg of (+)-OSU6162 significantly antagonized DOI-induced head twitches | 5% | 14% | 1.58e-06 M | 139 ± 14% | 1.58e-06 M | 139% | more potent at 5-HT2A than D2 receptors | 5.01 µM | 111% | 1.58e-05 M | BRET2 Eff % (human 5-HT2A receptors [6]; listed as (+) OSU-6162): ~80%; BRET2 Eff % (human 5-HT2A receptors [6]; listed as (+)-OSU-6162): 84 ± 2%
2 | CCCN1CCC[C@@H](c2cccc(S(C)(=O)=O)c2)C1 [(−)-OSU6162, (3S)-3-[3-(methylsulfonyl)phenyl]-1-propylpiperidine] | 132% | 7.94 µM | 68% | 2% | 5% | 0% | 2% | 13% | significantly antagonized DOI-induced head twitches | 6% | 11% | 6.31e-07 M | 113 ± 18% | 6.31e-07 M | 113% | equipotent at D2 and 5-HT2A receptors | 0.631 µM | 75% | 1e-05 M | EC50 (human 5-HT1D receptor; negative logarithm of EC50 in molar): 5.01 µM; BRET2 Eff % (human 5-HT2A receptors [6]; listed as (−) OSU-6162): approximately 60%; BRET2 Eff % (human 5-HT2A receptors [6]; listed as (−)-OSU-6162): 63 ± 2%
